According to patent publication US5100892A, “Dihydropyridine vasodilator agents” (Glaxo Inc., priority 1990, dated 1992):

Test system: Spontaneously Hypertensive Rats
Experiment: Spontaneously Hypertensive Rat (SHR) Test, hemodynamics in anesthetized rats
Assay type: in vivo, Spontaneously Hypertensive Rat (Sprague Dawley)
Details: for HR (Heart Rate: change from basal) / LVPT (time for Left Ventricular Pressure to decay from peak to 50%, % of basal) / MBP (Mean Blood Pressure: change from basal) / RT64 (change in time from maximal relaxation, % of basal) / dP/dT40 (change in rate of systolic pressure increase of left ventricle measured at 40 mm Hg from basal): anesthetized SHR
Protocol: Male Retired Breeder Spontaneously Hypertensive Rats (SHR) (Sprague Dawley, 250-350 g) are anesthetized by i.p. injection of Sodium Thiopental 50 mg/kg. A catheter is inserted into the duodenum for maintenance of anesthesia throughout the experiment. A tube is inserted through a lateral incision in the trachea. The left carotid artery is exposed and a Millar SPR-249 (2-F) pressure probe is inserted and passed into the left ventricle of the heart. Left ventricular pressure (LVP), the first differential of the LVP (+dP/dT,-dP/dT), the left ventricular end diastolic pressure (LVEDP) and the differential of the increase in LVP measured at a constant pressure of 40 mm Hg (dP/dT40) are measured via this probe. In addition to these parameters, two indices of myocardial diastolic relaxation are measured namely the RT64 (time in msec from the peak derivative of maximal relaxation to 64% of that value) and the Left Ventricular Pressure Time Constant (LVPT), the half-time for decay of the LVP from peak pressure to 50% of that pressure. […] Results also are shown graphically on a Gould RS3800 Recorder. A saline filled cannula is passed into the femoral vein for infusion of drugs and one is placed into the femoral artery for measurement and recording or arterial blood pressure (Statham P23Db pressure transducer). From this signal the diastolic, systolic and mean blood pressure are derived as well as the heart rate. After surgery, the preparation is left to stabilize for 45 minutes after which compounds, dissolved in polyethylene glycol, are slowly infused with a Sage Instruments Infusion pump into the femoral vein. […] After completion of the last infusion, hemodynamic parameters are observed over 30 min and then a standard dose of 3.0 mg/kg milrinone is infused (over 5 min) to test preparation responsiveness. In the SHR, the following results were obtained for several known cardiovascular agents and for the compound of Examples 10,11,15 and 16.

SMILES	HR (Heart Rate: change from basal) (10 mg/kg i.v.)	LVPT (time for Left Ventricular Pressure to decay from peak to 50%, % of basal) (10 mg/kg i.v.)	MBP (Mean Blood Pressure: change from basal) (10 mg/kg i.v.)	RT64 (change in time from maximal relaxation, % of basal) (10 mg/kg i.v.)	dP/dT40 (change in rate of systolic pressure increase of left ventricle measured at 40 mm Hg from basal) (10 mg/kg i.v.)	HR (Heart Rate: change from basal) (0.3 mg/kg i.v.)	LVPT (time for Left Ventricular Pressure to decay from peak to 50%, % of basal) (0.3 mg/kg i.v.)	MBP (Mean Blood Pressure: change from basal) (0.3 mg/kg i.v.)	RT64 (change in time from maximal relaxation, % of basal) (0.3 mg/kg i.v.)	dP/dT40 (change in rate of systolic pressure increase of left ventricle measured at 40 mm Hg from basal) (0.3 mg/kg i.v.)	HR (Heart Rate: change from basal) (1.0 mg/kg i.v.)	LVPT (time for Left Ventricular Pressure to decay from peak to 50%, % of basal) (1.0 mg/kg i.v.)	MBP (Mean Blood Pressure: change from basal) (1.0 mg/kg i.v.)	RT64 (change in time from maximal relaxation, % of basal) (1.0 mg/kg i.v.)	dP/dT40 (change in rate of systolic pressure increase of left ventricle measured at 40 mm Hg from basal) (1.0 mg/kg i.v.)	HR (Heart Rate: change from basal) (3.0 mg/kg i.v.)	LVPT (time for Left Ventricular Pressure to decay from peak to 50%, % of basal) (3.0 mg/kg i.v.)	MBP (Mean Blood Pressure: change from basal) (3.0 mg/kg i.v.)	RT64 (change in time from maximal relaxation, % of basal) (3.0 mg/kg i.v.)	dP/dT40 (change in rate of systolic pressure increase of left ventricle measured at 40 mm Hg from basal) (3.0 mg/kg i.v.)	further results
COC(=O)C1=C(C)NC(C)=C(C(=O)OCCNC(=O)COc2ccc(-c3cc(C#N)c(=O)[nH]c3C)cc2)C1c1cccc([N+](=O)[O-])c1 (single isomer, unassigned; (-)) [Example 16, (-)-2,6-dimethyl-3-carbomethoxy-4-(3-nitrophenyl)-5-{4-[1,2-dihydro-2-oxo-3-cyano-6-methyl-5(1H)-pyridyl]phenoxymethylenecarboxamidoethyloxycarbonyl}-1,4-dihydropyridine]	-1.5%	-18%	-34.9%	-17.6%	5%																effect on blood pressure (in words) (10 mg/kg i.v., SHR): hypotension; effect on dP/dT40 (in words) (10 mg/kg i.v., SHR): slight increase in dP/dT40; effect on heart rate (in words) (10 mg/kg i.v., SHR): no change in heart rate; effect on myocardial relaxation time constants (in words) (10 mg/kg i.v., SHR): marked reduction in myocardial relaxation time constants
COC(=O)C1=C(C)NC(C)=C(C(=O)OCCNC(=O)COc2ccc(-c3cc(C#N)c(=O)[nH]c3C)cc2)C1c1cccc(Cl)c1Cl (racemic) [Example 11, (±)-2,6-dimethyl-3-carbomethoxy-4-(2,3-dichlorophenvl)-5-{4-[1,2-dihydro-2-oxo-3-cyano-6-methyl-5(1H)-pyridyl]phenoxymethylenecarboxamindoethyloxycarbonyl}-1,4-dihydropyridine]	0%	-31%	-45.8%	-34.5%	-9%	2.8%	-14.4%	-12.5%	-15.7%	4.5%	1.7%	-22.4%	-16.3%	-22.8%	6.9%	-0.5%	-34%	-36.7%	-26%	3.5%	hemodynamic profile compared with Example 10 (in words) (i.v., SHR, compared with Example 10): A similar profile was observed
COC(=O)C1=C(C)NC(C)=C(C(=O)OCCNC(=O)COc2ccc(-c3cc(C#N)c(=O)[nH]c3C)cc2)C1c1cccc([N+](=O)[O-])c1 (single isomer, unassigned; (+)) [Example 15, (+)-2,6-dimethyl-3-carbomethoxy-4-(3-nitrophenyl)-5-{4-[1,2-dihydro-2-oxo-3-cyano-b 6-methyl-5(1H)-pyridyl]phenoxymethylenecarboxamidoethyloxycarbonyl}-1,4-dihydropyridine]	-1.9%	-4.2%	-39.8%	1.6%	11.9%																effect on blood pressure (in words) (10 mg/kg i.v., SHR): hypotension; effect on dP/dT40 (in words) (10 mg/kg i.v., SHR): slight increase in dP/dT40; effect on heart rate (in words) (10 mg/kg i.v., SHR): no change in heart rate; effect on myocardial relaxation time constants (in words) (10 mg/kg i.v., SHR): little effect
Cc1[nH]c(=O)c(C#N)cc1-c1ccncc1 [Milrinone]						10%	-15.5%	-10%	-13.7%	27%	12.4%	-22%	-29%	-20.5%	28.3%	16.2%	-30%	-29%	-36%	34%	effect on blood pressure (in words) (0.3 to 3 mg/kg i.v., SHR): hypotension; effect on dP/dT40 (in words) (0.3 to 3 mg/kg i.v., SHR): an increase in dP/dT40; effect on heart rate (in words) (0.3 to 3 mg/kg i.v., SHR): tachycardia; effect on myocardial relaxation time constants (in words) (0.3 to 3 mg/kg i.v., SHR): a decrease in myocardial relaxation time constants (increased rate of relaxation)
COC(=O)C1=C(C)NC(C)=C(C(=O)OC)C1c1ccccc1[N+](=O)[O-] [Nifedipine]						1%	3%	-30%	-7%	2%	-5%	-7%	-47.5%	-21%	-15.5%	-7.5%	-18.5%	-47.5%	-25%	-28.8%	HR (Heart Rate: change from basal) (0.1 mg/kg i.v.): 3%; LVPT (time for Left Ventricular Pressure to decay from peak to 50%, % of basal) (0.1 mg/kg i.v.): -8%; MBP (Mean Blood Pressure: change from basal) (0.1 mg/kg i.v.): -12%; RT64 (change in time from maximal relaxation, % of basal) (0.1 mg/kg i.v.): -7%; dP/dT40 (change in rate of systolic pressure increase of left ventricle measured at 40 mm Hg from basal) (0.1 mg/kg i.v.): 7.5%; effect on blood pressure (in words) (0.1 to 3 mg/kg i.v., SHR): hypotension; effect on dP/dT40 (in words) (0.1 to 3 mg/kg i.v., SHR): a depression of dP/dT40; effect on heart rate (in words) (0.1 to 3 mg/kg i.v., SHR): little change in heart rate; effect on myocardial relaxation time constants (in words) (0.1 to 3 mg/kg i.v., SHR): significant reduction of myocardial relaxation time constants only at the highest dose tested (3 mg/kg)
NNc1nncc2ccccc12 [Hydralazine]	17%	-21.9%	-48%	-22.6%	6.9%	0%	4.1%	-1.2%	2%	0%	8%	2.3%	-17.8%	0%	3.4%	8.8%	-7.8%	-37.5%	-12.5%	0%	effect on blood pressure (in words) (0.3 to 10 mg/kg i.v., SHR): hypotension; effect on dP/dT40 (in words) (0.3 to 10 mg/kg i.v., SHR): little change in dP/dT40; effect on heart rate (in words) (0.3 to 10 mg/kg i.v., SHR): reflex tachycardia; effect on myocardial relaxation time constants (in words) (0.3 to 10 mg/kg i.v., SHR): reduction in myocardial relaxation time constants only at 3 and 10 mg/kg
